Reference: article PMC4497792 (RSC advances, 2015)

How the values were obtained:
[1] = test system: A549 non-small cell lung carcinoma cells; experiment: Intracellular concentration / cell uptake assessment by LC-MS; format: cell-based, human; conditions: 100 μM, 4 hours, compared to aglycone NHI-2 and to each other
HeLa cells = conditions: antiproliferative IC50, HeLa and A549 cells
[2] = biological target: human lactate dehydrogenase hLDH5 (LDH-A4) (Homo sapiens, UniProt P00338); experiment: Enzyme inhibition assay, NADH-competition kinetics on purified hLDH5
GLUT1 = conditions: cited from earlier work; for Km: read-out: Km for GLUT1

cell uptake (intracellular concentration, in words) [1]	Structure (SMILES)	enhanced potency compared to NHI-2 (HeLa cells)	Km (GLUT1)	also measured
significantly enhanced cell uptake	COC(=O)c1cc2c(C(F)(F)F)cc(-c3ccccc3)cc2n1O[C@H]1O[C@H](CO)[C@@H](O)[C@H](O)[C@@H]1O [Compound 2, Methyl 6-phenyl-4-(trifluoromethyl)-1-(((2R,3S,4S,5S,6R)-3,4,5-trihydroxy-6-(hydroxymethyl)tetrahydro-2H-pyran-2-yl)oxy)-1H-indole-2-carboxylate]	3–6 fold	–	–
slightly lower levels of cell uptake	COC(=O)c1cc2c(C(F)(F)F)cc(-c3ccccc3)cc2n1O[C@@H]1O[C@H](CO)[C@H](O)[C@@H](O)[C@H]1O [Compound 3, Methyl 6-phenyl-4-(trifluoromethyl)-1-(((2S,3R,4R,5R,6R)-3,4,5-trihydroxy-6-(hydroxymethyl)tetrahydro-2H-pyran-2-yl)oxy)-1H-indole-2-carboxylate]	2–3 fold	–	–
–	COC(=O)c1cc2c(C(F)(F)F)cc(-c3ccccc3)cc2n1O[C@@H]1O[C@H](CO)[C@@H](O)[C@H](O)[C@H]1NC(C)=O [Compound 4, Methyl 1-(((2S,3R,4R,5S,6R)-3-acetamido-4,5-dihydroxy-6-(hydroxymethyl)tetrahydro-2H-pyran-2-yl)oxy)-6-phenyl-4-(trifluoromethyl)-1H-indole-2-carboxylate]	–	–	Ki [2]: 98.4 ± 15.6 µM
–	OC[C@H]1OC(O)[C@@H](O)[C@@H](O)[C@@H]1O (stereo partly drawn) [Mannose, D-mannose]	–	20 mM	reduction of affinity for GLUT1 compared to glucose (GLUT1): 13 fold
–	OC[C@H]1OC(O)[C@H](O)[C@@H](O)[C@@H]1O (some centres unmarked) [glucose]	–	1.5 mM	–
